Measurements published in patent publication US20130230459A1, “RADIOLABELLED mGluR2 PET LIGANDS” (Janssen Pharmaceuticals, Inc., priority 2010, published 2013).
Several values for one entry are separate records, joined by “and”; a condition that tells them apart may be missing. Equal entries are not always repeated.

Tests used:
[1] = Biodistribution studies of 11C tracers; assay type: in vivo, Wistar rats; settings: for SUV Blood / SUV Cerebellum / SUV Cerebrum total / SUV Cortex / SUV Hippocampus / SUV Striatum: normalized for body weight
Protocol: Biodistribution studies were carried out in healthy male Wistar rats (body weight 200-450 g) at 2 min, 30 min and 60 min post injection (p.i.) (n=3/time point). Rats were injected with about 11 MBq (2 min, 30 min analysis) or 22 MBq (60 min analysis) of the tracer via tail vein under anesthesia (2.5% isoflurane in O2 at 1 L/min flow rate) and sacrificed by decapitation at above specified time points. Blood and major organs were collected in tared tubes and weighed. The radioactivity in blood, organs and other body parts was measured using an automated gamma counter. The distribution of radioactivity in different parts of the body at different time points p.i. of the tracer was calculated and expressed as percentage of injected dose (% ID), and as percentage of injected dose per gram tissue (% ID/g) for the selected organs. % ID is calculated as cpm in organ/total cpm recovered. For calculation of total radioactivity in blood, blood mass was assumed to be 7% of the body mass.

mGluR2 = biological target: T1, mGluR2 (Rattus norvegicus, UniProt P31421); assay: MicroPET imaging: baseline, blocking and chase experiments; assay type: in vivo, Wistar rats; settings: for average SUV (total brain) after chase: 4650-5250 sec p.i.
T1 construct: from tissue; host or cells: brain of living male Wistar rats (in vivo microPET)
T1 sequence (P31421 19-872): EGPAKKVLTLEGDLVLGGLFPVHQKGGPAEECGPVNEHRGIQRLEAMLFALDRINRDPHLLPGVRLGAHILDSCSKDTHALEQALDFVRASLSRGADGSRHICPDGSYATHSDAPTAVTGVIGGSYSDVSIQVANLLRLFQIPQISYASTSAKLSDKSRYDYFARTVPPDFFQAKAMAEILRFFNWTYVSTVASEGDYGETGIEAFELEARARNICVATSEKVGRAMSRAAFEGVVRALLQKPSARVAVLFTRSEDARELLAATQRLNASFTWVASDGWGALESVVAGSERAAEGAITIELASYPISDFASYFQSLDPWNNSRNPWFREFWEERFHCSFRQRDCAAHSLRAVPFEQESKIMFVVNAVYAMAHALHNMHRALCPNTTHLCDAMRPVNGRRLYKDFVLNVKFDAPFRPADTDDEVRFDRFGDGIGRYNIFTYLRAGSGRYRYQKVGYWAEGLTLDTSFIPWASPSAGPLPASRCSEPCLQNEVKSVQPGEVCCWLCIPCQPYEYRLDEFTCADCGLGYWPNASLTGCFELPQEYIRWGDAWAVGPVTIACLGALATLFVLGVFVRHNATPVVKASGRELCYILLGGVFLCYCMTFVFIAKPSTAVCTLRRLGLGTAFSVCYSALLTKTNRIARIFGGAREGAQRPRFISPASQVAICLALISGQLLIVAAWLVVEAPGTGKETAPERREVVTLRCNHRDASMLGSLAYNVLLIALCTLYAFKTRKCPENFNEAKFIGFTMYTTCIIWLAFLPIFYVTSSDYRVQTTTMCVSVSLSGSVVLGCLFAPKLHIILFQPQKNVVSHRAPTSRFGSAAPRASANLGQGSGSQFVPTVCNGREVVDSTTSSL
Protocol: Imaging experiments were performed on a Focus™ 220 microPET scanner (Concorde Microsystems, Knoxyille, Tenn., USA) using healthy male Wistar rats. During all scan sessions, animals were kept under gas anesthesia (2.5% isoflurane in O2 at 1 L/min flow rate).
Dynamic scans of 90 min were acquired. After reconstruction of the images (filtered back projection), they were spatially normalized to an in-house created [^11C]raclopride template of the rat brain in Paxinos coordinates. Automated and symmetric volumes of interest (VOIs) were generated for different brain regions (striatum, cortex, cerebellum, hippocampus, hypothalamus, thalamus, substantia nigra, nucleus accumbens and lateral globus pallidus) from which time-activity curves (TAC) were constructed for each individual scan, using PMOD software (v 3.1, PMOD Technologies Ltd.). The radioactivity concentration in the different brain regions was expressed as SUV as a function of time p.i. of the radiotracer by normalization for body weight of the animal and injected dose.
Rats were injected with 30-60 MBq of high specific activity formulation of [^11C]B-4, [^11C]B-2, [^11C]B-7, or [^11C]B-10 via the tail vein under isoflurane anesthesia (2.5% in O2 at 1 L/min flow rate).
For pretreatment and displacement experiments, compound A, compound B or ritanserin were dissolved and administered in a vehicle containing 20% (2-hydroxypropyl)-β-cyclodextrine and two equivalents hydrochloric acid. The ritanserin solution was protected from light.
A self-blocking study was done by subcutaneous (s.c.) administration of the authentic reference material (for [^11C]B-4) at ˜30 min prior to the radiotracer injection. Displacement studies were performed by i.v. injection of compound B at dose 4, 1, 0.3 and 0.1 mg/kg, compound A at dose 1 mg/kg or ritanserin at dose 0.3 mg/kg. All chase compounds were injected ˜30 min after radiotracer injection. A wash-out period of at least four days was maintained between the different pretreatment and displacement studies.
[^11C]B-4 was evaluated in vivo in three rats which were scanned dynamically for 90 min using μPET. The first rat was used for a baseline scan. The second rat was pretreated with authentic reference material B-4 via s.c. administration (dose 10 mg/kg) at 30 min prior to tracer injection. The third rat was used in a chase experiment and was injected i.v. with authentic reference material B-4 (dose 3 mg/kg) 30 min after tracer injection.
Two rats were injected with high specific activity tracer ([^11C]B-4, [^11C]B-2, [^11C]B-7, or [^11C]B-10) and scanned dynamically for 90 min. The first rat was scanned baseline, the second rat was injected i.v. with compound B (dose 4 mg/kg) 30 min after tracer injection. Table 16 gives an overview of the maximum and minimum SUV values in the chase experiment for the four studied tracers.
A chase experiment was performed for [^11C]B-2 with different doses of compound B (4, 1, 0.3, 0.1 mg/kg). The chase compound was injected i.v. 30 min after tracer injection. Table 17 gives an overview of the average SUV values before and after injection of the chase for the total brain.

Compound: [11CH3]Oc1c(F)ccc(F)c1C1CCN(c2ccn3c(CC4CC4)nnc3c2Cl)CC1 [[^11C]B-2, 8-chloro-3-(cyclopropylmethyl)-7-[4-(3,6-difluoro-2-[^11C]methoxyphenyl)-1-piperidinyl]-1,2,4-triazolo[4,3-a]pyridine]
- % ID Blood ([1]; 2 min p.i.): 4.3 % ID and 4.3 ± 0.6 % ID
- % ID Carcass ([1]; 2 min p.i.): 38.4 ± 2.6 % ID
- % ID Cerebellum ([1]; 2 min p.i.): 0.17 % ID and 0.174 ± 0.039 % ID
- % ID Cerebrum total ([1]; 2 min p.i.): 0.69 % ID and 0.691 ± 0.146 % ID
- % ID Cortex ([1]; 2 min p.i.): 0.097 ± 0.019 % ID
- % ID Heart ([1]; 2 min p.i.): 4.6 ± 0.6 % ID
- % ID Hippocampus ([1]; 2 min p.i.): 0.028 ± 0.008 % ID
- % ID Intestines ([1]; 2 min p.i.): 8.5 ± 0.3 % ID
- % ID Kidneys ([1]; 2 min p.i.): 6.6 ± 0.7 % ID
- % ID Liver ([1]; 2 min p.i.): 33.5 ± 1.4 % ID
- % ID Lungs ([1]; 2 min p.i.): 1.5 ± 0.1 % ID
- % ID Rest of cerebrum ([1]; 2 min p.i.): 0.535 ± 0.121 % ID
- % ID Spleen + Pancreas ([1]; 2 min p.i.): 1.4 ± 0.1 % ID
- % ID Stomach ([1]; 2 min p.i.): 1.4 ± 0.2 % ID
- % ID Striatum ([1]; 2 min p.i.): 0.032 ± 0.008 % ID
- % ID Urine ([1]; 2 min p.i.): 0.1 ± 0.0 % ID
- Total brain uptake ([1]; 2 min p.i.): 0.88 % ID and 0.88 ± 0.2 % ID
- SUV Blood ([1]; 2 min p.i.): 0.60 ± 0.01
- SUV Cerebellum ([1]; 2 min p.i.): 1.59 ± 0.03
- SUV Cerebrum total ([1]; 2 min p.i.): 1.32 ± 0.03
- SUV Cortex ([1]; 2 min p.i.): 1.46 ± 0.03
- SUV Hippocampus ([1]; 2 min p.i.): 0.90 ± 0.01
- SUV Striatum ([1]; 2 min p.i.): 1.22 and 1.22 ± 0.02
- % ID Blood ([1]; 30 min p.i.): 2.7 ± 0.9 % ID
- % ID Carcass ([1]; 30 min p.i.): 50.9 ± 3.4 % ID
- % ID Cerebellum ([1]; 30 min p.i.): 0.291 ± 0.088 % ID
- % ID Cerebrum total ([1]; 30 min p.i.): 0.914 ± 0.140 % ID
- % ID Cortex ([1]; 30 min p.i.): 0.118 ± 0.041 % ID
- % ID Heart ([1]; 30 min p.i.): 2.5 ± 0.8 % ID
- % ID Hippocampus ([1]; 30 min p.i.): 0.045 ± 0.005 % ID
- % ID Intestines ([1]; 30 min p.i.): 10.4 ± 1.2 % ID
- % ID Kidneys ([1]; 30 min p.i.): 4.3 ± 1.0 % ID
- % ID Liver ([1]; 30 min p.i.): 22.7 ± 3.0 % ID
- % ID Lungs ([1]; 30 min p.i.): 1.1 ± 0.5 % ID
- % ID Rest of cerebrum ([1]; 30 min p.i.): 0.704 ± 0.112 % ID
- % ID Spleen + Pancreas ([1]; 30 min p.i.): 1.4 ± 0.2 % ID
- % ID Stomach ([1]; 30 min p.i.): 3.7 ± 0.3 % ID
- % ID Striatum ([1]; 30 min p.i.): 0.047 ± 0.008 % ID
- % ID Urine ([1]; 30 min p.i.): 0.3 ± 0.1 % ID
- Total brain uptake ([1]; 30 min p.i.): 1.23 ± 0.2 % ID
- SUV Blood ([1]; 30 min p.i.): 0.40 ± 0.01
- SUV Cerebellum ([1]; 30 min p.i.): 2.62 and 2.62 ± 0.04
- SUV Cerebrum total ([1]; 30 min p.i.): 1.96 ± 0.03
- SUV Cortex ([1]; 30 min p.i.): 1.77 ± 0.04
- SUV Hippocampus ([1]; 30 min p.i.): 1.49 ± 0.03
- SUV Striatum ([1]; 30 min p.i.): 2.14 and 2.14 ± 0.04
- % ID Blood ([1]; 60 min p.i.): 2.0 % ID and 2.0 ± 0.0 % ID
- % ID Carcass ([1]; 60 min p.i.): 55.8 ± 9.4 % ID
- % ID Cerebellum ([1]; 60 min p.i.): 0.142 ± 0.029 % ID
- % ID Cerebrum total ([1]; 60 min p.i.): 0.558 ± 0.042 % ID
- % ID Cortex ([1]; 60 min p.i.): 0.080 ± 0.022 % ID
- % ID Heart ([1]; 60 min p.i.): 1.2 ± 0.2 % ID
- % ID Hippocampus ([1]; 60 min p.i.): 0.024 ± 0.006 % ID
- % ID Intestines ([1]; 60 min p.i.): 15.6 ± 2.7 % ID
- % ID Kidneys ([1]; 60 min p.i.): 2.1 ± 0.2 % ID
- % ID Liver ([1]; 60 min p.i.): 20.1 ± 7.0 % ID
- % ID Lungs ([1]; 60 min p.i.): 0.6 ± 0.1 % ID
- % ID Rest of cerebrum ([1]; 60 min p.i.): 0.421 ± 0.010 % ID
- % ID Spleen + Pancreas ([1]; 60 min p.i.): 0.7 ± 0.0 % ID
- % ID Stomach ([1]; 60 min p.i.): 1.7 ± 0.4 % ID
- % ID Striatum ([1]; 60 min p.i.): 0.033 ± 0.008 % ID
- % ID Urine ([1]; 60 min p.i.): 0.3 ± 0.1 % ID
- % ID present in liver and intestines ([1]; 60 min p.i.): 35.7 % ID
- % ID present in the urinary system ([1]; 60 min p.i.): 2.4 % ID
- Total brain uptake ([1]; 60 min p.i.): 0.71 ± 0.0 % ID
- SUV Blood ([1]; 60 min p.i.): 0.30 ± 0.01
- SUV Cerebellum ([1]; 60 min p.i.): 1.75 ± 0.04
- SUV Cerebrum total ([1]; 60 min p.i.): 1.11 ± 0.06
- SUV Cortex ([1]; 60 min p.i.): 1.28 ± 0.02
- SUV Hippocampus ([1]; 60 min p.i.): 0.73 ± 0.06
- SUV Striatum ([1]; 60 min p.i.): 1.72 ± 0.02
- % ID present in the carcass ([1]; at all time points examined): ~50 % ID
- average SUV (total brain), baseline (mGluR2; baseline scan, 930-1650 sec p.i.): 1.26
- % reduction of SUV (total brain) due to chase (mGluR2; chase compound B 4 mg/kg i.v.): 73%
- % reduction of SUV (total brain) (mGluR2; compound B 0.1 mg/kg): 50%
- average SUV (total brain) before chase (mGluR2; compound B 0.1 mg/kg, 930-1650 sec p.i.): 1.35
- average SUV (total brain) after chase (mGluR2; compound B 0.1 mg/kg): 0.67
- % reduction of SUV (total brain) (mGluR2; compound B 0.3 mg/kg): 64%
- average SUV (total brain) before chase (mGluR2; compound B 0.3 mg/kg, 930-1650 sec p.i.): 2.15
- average SUV (total brain) after chase (mGluR2; compound B 0.3 mg/kg): 0.78
- % reduction of SUV (total brain) (mGluR2; compound B 1 mg/kg): 66%
- average SUV (total brain) before chase (mGluR2; compound B 1 mg/kg, 930-1650 sec p.i.): 1.78
- average SUV (total brain) after chase (mGluR2; compound B 1 mg/kg): 0.61
- % reduction of SUV (total brain) (mGluR2; compound B 4 mg/kg): 74%
- average SUV (total brain) before chase (mGluR2; compound B 4 mg/kg, 930-1650 sec p.i.): 1.36
- average SUV (total brain) after chase (mGluR2; compound B 4 mg/kg): 0.36
- character of tracer binding to mGluR2 in vivo (mGluR2; concluded from blocking/chase microPET experiments): binds reversible, specific and selective to mGluR2
- SUV (total brain) before chase (mGluR2; maximum SUV, chase compound B 4 mg/kg i.v. 30 min after tracer): 1.4
- SUV (total brain) after chase (mGluR2; minimum SUV, chase compound B 4 mg/kg i.v. 30 min after tracer): 0.38
